ChEMBL document CHEMBL5726342, “NMDA receptor modulators and uses related thereto” (2017)

Assay: Inhibition Assay: Two-electrode voltage-clamp recordings were made from Xenopus laevis oocytes expressing recombinant rat GluN1/GluN2A, GluN1/GluN2B, GluN1/GluN2C, GluN1/GluN2D, GluA1, or GluK2 receptors following injection of 5-10 ng of cRNA synthesized according to manufacturers' protocols (Ambin, mMessage, mMachine). cDNAs used were rat GluN1-1a (GenBank accession numbers U11418 and U08261; hereafter GluN1), GluN2A (D13211), GluN2B (U11419), GluN2C (M91563), GluN2D (L31611), GluA1 (X17184), GluK2 (Z11548). The current under voltage-clamp was recorded during perfusion with recording solution containing (in mM) 90 NaCl, 1.0 KCl, 0.5 BaCl2, 0.005 EDTA, and 10 HEPES at pH 7.4 (23° C.). Glass micropipettes had resistances of 0.3-1.0 MS2 and were filled with 3.0 M KCl. The membrane potential was clamped at −40 mV during the experiment. Recordings were digitized at 10 Hz and analyzed off line. 20 mM stock solutions of test compounds in 100% DMSO were made and diluted to obtain the final concentration; final DMSO content was 0.05-0.5% (vol/vol). Oocytes expressing GluK2 homomeric receptors were first treated with 10 μM concanavalin A (10 minutes). NMDA receptor responses were obtained by challenging oocytes with 100 μM glutamate plus 30 μM glycine; GluA1 and GluK2 receptors responses were recorded during application of 100 μM glutamate. […]
Assay type: cell-based

CCc1ccc(C2C(C(=O)c3ccncc3)=C(O)C(=O)N2CCc2c[nH]c3cc(C)ccc23)cc1 (configuration not stated)
IC50: 9 µM

CCc1ccc(C2C(C(=O)c3cccnc3)=C(O)C(=O)N2CCc2c[nH]c3cc(C)ccc23)cc1 (configuration not stated)
IC50: 7 µM
